Data as given in the NIST ThermoML archive (doi:10.1021/je900137r).

Experiment: molar heat capacity at constant volume
Settings: Liquid, Vacuum adiabatic calorimetry

CCC [propane]
Settings	molar heat capacity at constant volume [J/K/mol]
101.14 K, 5078 kPa	59.59
102.31 K, 9415 kPa	59.63
104.09 K, 13618 kPa	59.63
105.25 K, 15961 kPa	59.93
107.01 K, 19580 kPa	59.8
108.15 K, 22430 kPa	60.17
109.89 K, 26296 kPa	60.2
111.02 K, 28556 kPa	60.44
124.99 K, 4945 kPa	59.16
126.59 K, 8062 kPa	59.47
127.81 K, 10414 kPa	59.44
129.39 K, 13480 kPa	59.66
130.6 K, 15739 kPa	59.6
132.17 K, 18723 kPa	60.02
133.36 K, 20943 kPa	60
134.92 K, 23869 kPa	60.12
136.1 K, 26024 kPa	60.14
137.64 K, 28865 kPa	60.52
138.81 K, 30978 kPa	60.43
149.78 K, 4666 kPa	59.78
150.88 K, 6488 kPa	59.62
152.48 K, 9113 kPa	59.99
153.59 K, 10968 kPa	60.1
155.17 K, 13482 kPa	60.14
156.27 K, 15303 kPa	60.05
157.84 K, 17768 kPa	60.44
158.93 K, 19535 kPa	60.5
160.49 K, 21973 kPa	60.63
161.58 K, 23733 kPa	60.93
163.12 K, 26095 kPa	60.76
164.21 K, 27828 kPa	61.2
165.73 K, 30131 kPa	61.05
166.81 K, 31798 kPa	61.54
174.72 K, 4244 kPa	60.48
175.51 K, 5348 kPa	60.54
177.36 K, 7916 kPa	60.58
178.15 K, 9061 kPa	60.86
179.97 K, 11523 kPa	61.04
180.77 K, 12700 kPa	61.22
182.57 K, 15077 kPa	61.29
183.38 K, 16221 kPa	61.34
185.16 K, 18570 kPa	61.57
185.97 K, 19691 kPa	61.79
187.72 K, 22005 kPa	62.06
188.54 K, 23141 kPa	62.12
190.27 K, 25385 kPa	62.49
191.1 K, 26538 kPa	62.39
192.81 K, 28708 kPa	62.66
193.64 K, 29843 kPa	62.88
195.33 K, 31980 kPa	62.87
196.16 K, 33063 kPa	63.39
199.29 K, 3434 kPa	62.08
200.29 K, 4569 kPa	62.02
201.88 K, 6487 kPa	62.05
202.88 K, 7627 kPa	62.29
204.46 K, 9498 kPa	62.44
205.45 K, 10675 kPa	62.72
207.03 K, 12468 kPa	63.03
208.02 K, 13633 kPa	63.07
209.59 K, 15407 kPa	63.29
210.57 K, 16525 kPa	63.38
212.13 K, 18295 kPa	63.46
213.11 K, 19392 kPa	63.48
214.66 K, 21152 kPa	63.9
215.63 K, 22244 kPa	63.92
217.18 K, 23972 kPa	64.21
218.15 K, 25069 kPa	64.71
219.69 K, 26749 kPa	64.74
220.66 K, 27850 kPa	64.89
222.18 K, 29491 kPa	65.36
223.14 K, 30548 kPa	65.25
224.67 K, 32203 kPa	65.68
224.72 K, 3002 kPa	64.29
225.63 K, 33221 kPa	66
225.69 K, 3945 kPa	64.4
227.28 K, 5514 kPa	64.59
228.26 K, 6458 kPa	64.54
229.84 K, 8010 kPa	64.8
230.82 K, 8990 kPa	65.2
232.38 K, 10480 kPa	64.79
233.38 K, 11478 kPa	65.49
234.92 K, 12923 kPa	65.31
235.92 K, 13904 kPa	65.71
237.46 K, 15350 kPa	65.71
238.46 K, 16299 kPa	66.07
239.99 K, 17746 kPa	65.96
240.99 K, 18681 kPa	66.68
242.51 K, 20123 kPa	66.43
243.5 K, 21054 kPa	66.99
245.03 K, 22471 kPa	67.42
246.01 K, 23413 kPa	67.65
247.54 K, 24804 kPa	67.75
248.53 K, 25750 kPa	67.69
249.66 K, 2670 kPa	66.76
250.04 K, 27105 kPa	67.7
250.68 K, 3498 kPa	66.65
251.02 K, 28035 kPa	68.22
252.25 K, 4769 kPa	67.25
252.53 K, 29385 kPa	68.06
253.26 K, 5557 kPa	67.47
253.52 K, 30287 kPa	68.63
254.85 K, 6861 kPa	67.69
255.02 K, 31645 kPa	68.71
255.85 K, 7667 kPa	67.82
256 K, 32529 kPa	69.58
257.44 K, 8938 kPa	67.87
258.44 K, 9764 kPa	67.88
260.02 K, 10999 kPa	68.4
261.02 K, 11824 kPa	68.53
262.61 K, 13051 kPa	68.83
263.6 K, 13861 kPa	69.03
265.2 K, 15091 kPa	69.38
266.18 K, 15878 kPa	69.32
267.79 K, 17120 kPa	69.94
268.76 K, 17881 kPa	69.68
270.37 K, 19134 kPa	70.51
271.33 K, 19881 kPa	70.43
272.95 K, 21136 kPa	70.81
273.9 K, 21877 kPa	70.9
275.54 K, 23127 kPa	70.92
276.18 K, 3327 kPa	70.24
276.48 K, 23865 kPa	71.62
276.56 K, 3559 kPa	70.86
278.12 K, 25101 kPa	71.49
278.85 K, 5025 kPa	70.73
279.04 K, 25835 kPa	72.09
279.23 K, 5297 kPa	71.29
280.7 K, 27065 kPa	72.08
281.51 K, 6761 kPa	71.44
281.61 K, 27786 kPa	72.29
281.9 K, 7032 kPa	70.95
283.29 K, 29020 kPa	72.18
284.18 K, 8508 kPa	71.57
284.19 K, 29713 kPa	72.65
284.58 K, 8760 kPa	71.75
285.87 K, 30962 kPa	72.47
286.77 K, 31632 kPa	72.64
286.85 K, 10247 kPa	71.76
287.26 K, 10490 kPa	72.25
288.45 K, 32894 kPa	72.96
289.34 K, 33552 kPa	73.33
289.52 K, 11964 kPa	71.92
289.95 K, 12212 kPa	72.29
292.2 K, 13671 kPa	72.85
292.64 K, 13928 kPa	73.17
294.88 K, 15364 kPa	73.57
295.34 K, 15644 kPa	73.82
297.56 K, 17055 kPa	74.47
298.05 K, 17358 kPa	74.2
300.26 K, 18750 kPa	74.37
300.73 K, 2939 kPa	74.37
300.76 K, 19068 kPa	74.45
301.58 K, 3377 kPa	74.41
301.67 K, 3419 kPa	74.62
302.95 K, 20442 kPa	74.16
303.48 K, 20773 kPa	74.78
303.54 K, 4354 kPa	74.77
304.37 K, 4801 kPa	74.97
304.51 K, 4850 kPa	74.76
305.65 K, 22131 kPa	75.52
306.2 K, 22473 kPa	75.56
306.36 K, 5801 kPa	74.54
307.19 K, 6235 kPa	74.97
307.35 K, 6310 kPa	75.3
308.37 K, 23829 kPa	76.01
308.94 K, 24172 kPa	76.12
309.19 K, 7252 kPa	75.53
310.01 K, 7669 kPa	75.56
310.22 K, 7778 kPa	75.78
311.08 K, 25517 kPa	76.58
311.68 K, 25869 kPa	76.11
312.04 K, 8706 kPa	75.83
312.85 K, 9104 kPa	76.02
313.1 K, 9241 kPa	76.23
313.82 K, 27203 kPa	77.38
314.43 K, 27556 kPa	77.06
314.91 K, 10151 kPa	75.71
315.69 K, 10543 kPa	77.05
316 K, 10697 kPa	76.49
316.58 K, 28887 kPa	76.95
317.18 K, 29242 kPa	77.79
317.79 K, 11598 kPa	77.05
318.56 K, 11984 kPa	77.31
318.91 K, 12158 kPa	77.07
319.33 K, 30553 kPa	77.02
319.67 K, 2142 kPa	76.76
319.95 K, 30930 kPa	77.48
320.71 K, 13058 kPa	77.4
321.3 K, 2771 kPa	77.58
321.43 K, 13428 kPa	77.25
321.83 K, 13623 kPa	76.95
322.1 K, 32227 kPa	78.59
322.71 K, 3326 kPa	77.29
322.73 K, 32614 kPa	78
323.62 K, 14518 kPa	78.11
324.31 K, 14874 kPa	77.39
324.35 K, 3977 kPa	78.06
324.77 K, 15094 kPa	77.5
324.91 K, 33925 kPa	78.84
325.78 K, 4543 kPa	78.25
326.57 K, 15995 kPa	78.02
327.22 K, 16325 kPa	78.34
327.42 K, 5191 kPa	78.96
327.73 K, 16576 kPa	78.56
328.88 K, 5770 kPa	78.35
329.52 K, 17472 kPa	78.67
330.15 K, 17784 kPa	78.59
330.51 K, 6416 kPa	78.78
330.7 K, 18059 kPa	79.38
331.99 K, 6999 kPa	78.63
332.5 K, 18957 kPa	79.25
333.09 K, 19244 kPa	78.85
333.62 K, 7647 kPa	78.71
333.68 K, 19542 kPa	80.2
335.12 K, 8240 kPa	79.2
335.5 K, 20439 kPa	79.93
336.05 K, 20709 kPa	79.2
336.7 K, 21027 kPa	80.28
336.76 K, 8887 kPa	79.06
338.28 K, 9489 kPa	80.76
338.52 K, 21926 kPa	80.26
339.05 K, 22184 kPa	80.79
339.73 K, 22511 kPa	80.76
339.92 K, 10135 kPa	80.44
341.46 K, 10747 kPa	81.71
341.56 K, 23408 kPa	80.54
342.07 K, 23667 kPa	81.31
342.79 K, 24013 kPa	81.23
343.1 K, 11393 kPa	80.84
344.62 K, 24907 kPa	81.87
344.67 K, 12011 kPa	81.35
